From the kinase profiling compilation of Christmann-Franck et al. (2016)

What was measured:
Assay in all cases: KINOMEscan competition binding
Conditions in all cases: compound 1.0 µM
[1] = biological target: STK17B (human) (UniProt O94768)
[2] = biological target: EPHA2 (human) (UniProt P29317)
[3] = biological target: CDC42BPG (human) (UniProt Q6DT37)
[4] = biological target: TAOK3 (human) (UniProt Q9H2K8)
[5] = biological target: MAPK3 (human) (UniProt P27361)
[6] = system: KIT (human), P10721 [V559D/T670I]
[7] = biological target: EPHA1 (human) (UniProt P21709)
[8] = biological target: TBK1 (human) (UniProt Q9UHD2)
[9] = biological target: TSSK1B (human) (UniProt Q9BXA7)
[10] = biological target: CRK2 (P.falciparum) (UniProt P61075)
[11] = biological target: ERBB2 (human) (UniProt P04626)
ERBB2 (human), sequence (P04626 whole entry, looked up): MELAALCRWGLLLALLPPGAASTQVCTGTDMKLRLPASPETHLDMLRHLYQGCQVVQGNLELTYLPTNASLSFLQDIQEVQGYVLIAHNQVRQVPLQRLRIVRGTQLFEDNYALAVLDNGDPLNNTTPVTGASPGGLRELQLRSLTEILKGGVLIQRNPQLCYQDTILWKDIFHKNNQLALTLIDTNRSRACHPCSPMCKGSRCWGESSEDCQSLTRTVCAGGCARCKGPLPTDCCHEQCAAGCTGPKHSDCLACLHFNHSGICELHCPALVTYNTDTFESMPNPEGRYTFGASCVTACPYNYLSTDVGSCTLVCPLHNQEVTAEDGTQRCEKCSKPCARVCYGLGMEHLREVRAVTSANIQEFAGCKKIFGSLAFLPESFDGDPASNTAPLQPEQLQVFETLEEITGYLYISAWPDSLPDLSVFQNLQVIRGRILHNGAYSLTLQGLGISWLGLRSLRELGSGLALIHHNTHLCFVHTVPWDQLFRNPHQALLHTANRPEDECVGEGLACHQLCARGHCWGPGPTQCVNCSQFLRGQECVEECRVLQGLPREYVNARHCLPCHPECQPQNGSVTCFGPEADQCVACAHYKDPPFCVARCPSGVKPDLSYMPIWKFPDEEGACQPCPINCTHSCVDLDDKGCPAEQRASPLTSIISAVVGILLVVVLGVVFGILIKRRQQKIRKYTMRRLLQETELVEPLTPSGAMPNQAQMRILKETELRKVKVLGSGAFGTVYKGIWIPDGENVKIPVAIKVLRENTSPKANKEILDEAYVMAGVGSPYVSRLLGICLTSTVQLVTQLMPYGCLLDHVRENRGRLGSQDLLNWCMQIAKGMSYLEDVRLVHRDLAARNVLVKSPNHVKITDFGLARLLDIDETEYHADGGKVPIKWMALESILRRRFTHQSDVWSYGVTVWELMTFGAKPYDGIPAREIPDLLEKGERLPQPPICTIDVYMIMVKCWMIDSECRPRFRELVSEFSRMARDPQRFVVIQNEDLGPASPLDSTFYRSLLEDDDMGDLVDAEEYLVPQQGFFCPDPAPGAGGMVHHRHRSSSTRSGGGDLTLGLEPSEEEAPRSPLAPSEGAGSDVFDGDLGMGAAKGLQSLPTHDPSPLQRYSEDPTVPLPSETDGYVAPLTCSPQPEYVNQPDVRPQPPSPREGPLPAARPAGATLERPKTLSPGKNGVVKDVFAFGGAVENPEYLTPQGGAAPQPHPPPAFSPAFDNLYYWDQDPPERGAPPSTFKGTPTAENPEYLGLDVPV

[12] = biological target: CDK15 (human) (UniProt Q96Q40)
[13] = biological target: MAPKAPK5 (human) (UniProt Q8IW41)
[14] = biological target: CSNK1D (human) (UniProt P48730)
[15] = biological target: EPHB6 (human) (UniProt O15197)
[16] = system: EGFR (human), P00533 [G719C]
[17] = biological target: MTOR (human) (UniProt P42345)
[18] = biological target: MAST1 (human) (UniProt Q9Y2H9)
[19] = biological target: INSRR (human) (UniProt P14616)
[20] = biological target: MYLK4 (human) (UniProt Q86YV6)
[21] = biological target: NEK9 (human) (UniProt Q8TD19)
[22] = biological target: FYN (human) (UniProt P06241)
[23] = biological target: RIOK3 (human) (UniProt O14730)
[24] = biological target: EIF2AK2 (human) (UniProt P19525)
EIF2AK2 (human), sequence (P19525 whole entry, looked up): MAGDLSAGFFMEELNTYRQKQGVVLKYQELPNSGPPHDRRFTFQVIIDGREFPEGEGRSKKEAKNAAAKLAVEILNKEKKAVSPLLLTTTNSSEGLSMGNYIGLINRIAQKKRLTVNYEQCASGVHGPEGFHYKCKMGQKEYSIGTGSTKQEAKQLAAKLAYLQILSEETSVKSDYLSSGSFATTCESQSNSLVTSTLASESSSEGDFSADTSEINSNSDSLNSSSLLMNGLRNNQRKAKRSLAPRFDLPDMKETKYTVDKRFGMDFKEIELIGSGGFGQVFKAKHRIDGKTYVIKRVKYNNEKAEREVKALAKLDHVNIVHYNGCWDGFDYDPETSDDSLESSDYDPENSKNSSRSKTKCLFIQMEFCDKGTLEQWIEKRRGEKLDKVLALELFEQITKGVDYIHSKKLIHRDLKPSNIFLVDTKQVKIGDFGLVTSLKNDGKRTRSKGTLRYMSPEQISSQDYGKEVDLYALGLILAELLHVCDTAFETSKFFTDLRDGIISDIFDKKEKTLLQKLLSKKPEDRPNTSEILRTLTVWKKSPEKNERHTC

[25] = biological target: PDGFRB (human) (UniProt P09619)
[26] = biological target: AURKB (human) (UniProt Q96GD4)
[27] = biological target: ZAP70 (human) (UniProt P43403)
ZAP70 (human), sequence (P43403 whole entry, looked up): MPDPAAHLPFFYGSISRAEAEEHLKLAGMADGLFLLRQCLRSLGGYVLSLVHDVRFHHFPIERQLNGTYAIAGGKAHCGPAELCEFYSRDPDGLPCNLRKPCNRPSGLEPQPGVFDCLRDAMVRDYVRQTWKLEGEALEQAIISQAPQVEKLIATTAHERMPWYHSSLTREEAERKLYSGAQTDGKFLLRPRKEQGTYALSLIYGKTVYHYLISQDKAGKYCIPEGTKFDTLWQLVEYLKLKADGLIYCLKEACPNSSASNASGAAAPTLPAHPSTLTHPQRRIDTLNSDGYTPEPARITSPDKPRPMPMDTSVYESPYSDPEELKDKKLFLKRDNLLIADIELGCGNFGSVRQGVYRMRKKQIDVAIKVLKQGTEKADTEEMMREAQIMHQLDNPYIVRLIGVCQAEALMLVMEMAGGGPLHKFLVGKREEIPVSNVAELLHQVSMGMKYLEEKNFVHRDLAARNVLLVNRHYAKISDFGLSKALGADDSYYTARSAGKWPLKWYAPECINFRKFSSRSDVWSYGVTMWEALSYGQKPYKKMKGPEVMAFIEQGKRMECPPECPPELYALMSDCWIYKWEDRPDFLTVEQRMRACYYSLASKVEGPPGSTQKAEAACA

[28] = biological target: CDKL3 (human) (UniProt Q8IVW4)
[29] = biological target: MARK4 (human) (UniProt Q96L34)
MARK4 (human), sequence (Q96L34 whole entry, looked up): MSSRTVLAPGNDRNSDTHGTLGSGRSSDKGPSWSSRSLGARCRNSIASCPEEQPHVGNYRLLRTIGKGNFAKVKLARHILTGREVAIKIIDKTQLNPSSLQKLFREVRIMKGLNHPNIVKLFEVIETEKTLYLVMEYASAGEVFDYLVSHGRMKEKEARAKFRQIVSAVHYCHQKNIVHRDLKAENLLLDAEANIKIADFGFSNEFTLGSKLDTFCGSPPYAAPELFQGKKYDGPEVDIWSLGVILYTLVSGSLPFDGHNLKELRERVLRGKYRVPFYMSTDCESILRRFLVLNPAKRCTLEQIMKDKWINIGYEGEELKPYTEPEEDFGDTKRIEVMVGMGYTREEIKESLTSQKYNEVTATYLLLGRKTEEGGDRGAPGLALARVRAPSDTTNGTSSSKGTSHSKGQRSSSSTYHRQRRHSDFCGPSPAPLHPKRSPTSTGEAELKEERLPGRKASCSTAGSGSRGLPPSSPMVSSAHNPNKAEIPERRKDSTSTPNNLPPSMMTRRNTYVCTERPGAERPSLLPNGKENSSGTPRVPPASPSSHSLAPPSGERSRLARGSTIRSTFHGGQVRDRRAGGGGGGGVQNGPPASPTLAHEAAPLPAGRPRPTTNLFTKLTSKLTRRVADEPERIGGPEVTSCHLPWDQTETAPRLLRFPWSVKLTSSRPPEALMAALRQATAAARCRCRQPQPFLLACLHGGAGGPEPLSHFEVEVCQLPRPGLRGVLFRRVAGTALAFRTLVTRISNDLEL

[30] = biological target: BMX (human) (UniProt P51813)
[31] = biological target: TNIK (human) (UniProt Q9UKE5)
[32] = biological target: BLK (human) (UniProt P51451)
[33] = system: KIT (human), P10721 [V559D/V654A]
[34] = biological target: MAPKAPK2 (human) (UniProt P49137)
MAPKAPK2 (human), sequence (P49137 whole entry, looked up): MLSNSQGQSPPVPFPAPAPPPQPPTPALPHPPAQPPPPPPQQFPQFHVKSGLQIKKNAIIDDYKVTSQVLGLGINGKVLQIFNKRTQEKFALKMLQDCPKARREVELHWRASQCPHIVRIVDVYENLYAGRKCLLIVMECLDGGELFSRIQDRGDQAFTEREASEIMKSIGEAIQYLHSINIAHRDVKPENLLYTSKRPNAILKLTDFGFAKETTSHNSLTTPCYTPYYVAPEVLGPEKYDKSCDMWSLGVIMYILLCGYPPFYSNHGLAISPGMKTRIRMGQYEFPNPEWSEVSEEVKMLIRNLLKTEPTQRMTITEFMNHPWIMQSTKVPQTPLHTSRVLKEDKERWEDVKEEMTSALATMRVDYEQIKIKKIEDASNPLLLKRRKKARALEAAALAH

[35] = biological target: CDK19 (human) (UniProt Q9BWU1)
[36] = biological target: NTRK2 (human) (UniProt Q16620)
[37] = biological target: EPHA5 (human) (UniProt P54756)
[38] = biological target: OXSR1 (human) (UniProt O95747)
[39] = biological target: CDK17 (human) (UniProt Q00537)
CDK17 (human), sequence (Q00537 whole entry, looked up): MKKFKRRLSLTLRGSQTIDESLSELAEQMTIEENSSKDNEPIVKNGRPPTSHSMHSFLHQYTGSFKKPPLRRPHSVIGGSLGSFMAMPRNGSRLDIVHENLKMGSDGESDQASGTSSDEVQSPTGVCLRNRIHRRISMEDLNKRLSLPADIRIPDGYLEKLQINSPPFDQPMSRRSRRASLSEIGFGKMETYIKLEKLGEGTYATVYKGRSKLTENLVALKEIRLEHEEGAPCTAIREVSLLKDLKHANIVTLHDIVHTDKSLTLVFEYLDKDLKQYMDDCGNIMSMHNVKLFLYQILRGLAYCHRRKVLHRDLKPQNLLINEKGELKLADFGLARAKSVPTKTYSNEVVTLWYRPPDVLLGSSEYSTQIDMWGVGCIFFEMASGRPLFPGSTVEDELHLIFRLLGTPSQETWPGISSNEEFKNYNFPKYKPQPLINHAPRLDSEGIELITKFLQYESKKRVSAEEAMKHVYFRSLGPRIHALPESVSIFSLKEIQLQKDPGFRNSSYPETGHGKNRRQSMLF

EPHA2 (human), sequence (P29317 whole entry, looked up): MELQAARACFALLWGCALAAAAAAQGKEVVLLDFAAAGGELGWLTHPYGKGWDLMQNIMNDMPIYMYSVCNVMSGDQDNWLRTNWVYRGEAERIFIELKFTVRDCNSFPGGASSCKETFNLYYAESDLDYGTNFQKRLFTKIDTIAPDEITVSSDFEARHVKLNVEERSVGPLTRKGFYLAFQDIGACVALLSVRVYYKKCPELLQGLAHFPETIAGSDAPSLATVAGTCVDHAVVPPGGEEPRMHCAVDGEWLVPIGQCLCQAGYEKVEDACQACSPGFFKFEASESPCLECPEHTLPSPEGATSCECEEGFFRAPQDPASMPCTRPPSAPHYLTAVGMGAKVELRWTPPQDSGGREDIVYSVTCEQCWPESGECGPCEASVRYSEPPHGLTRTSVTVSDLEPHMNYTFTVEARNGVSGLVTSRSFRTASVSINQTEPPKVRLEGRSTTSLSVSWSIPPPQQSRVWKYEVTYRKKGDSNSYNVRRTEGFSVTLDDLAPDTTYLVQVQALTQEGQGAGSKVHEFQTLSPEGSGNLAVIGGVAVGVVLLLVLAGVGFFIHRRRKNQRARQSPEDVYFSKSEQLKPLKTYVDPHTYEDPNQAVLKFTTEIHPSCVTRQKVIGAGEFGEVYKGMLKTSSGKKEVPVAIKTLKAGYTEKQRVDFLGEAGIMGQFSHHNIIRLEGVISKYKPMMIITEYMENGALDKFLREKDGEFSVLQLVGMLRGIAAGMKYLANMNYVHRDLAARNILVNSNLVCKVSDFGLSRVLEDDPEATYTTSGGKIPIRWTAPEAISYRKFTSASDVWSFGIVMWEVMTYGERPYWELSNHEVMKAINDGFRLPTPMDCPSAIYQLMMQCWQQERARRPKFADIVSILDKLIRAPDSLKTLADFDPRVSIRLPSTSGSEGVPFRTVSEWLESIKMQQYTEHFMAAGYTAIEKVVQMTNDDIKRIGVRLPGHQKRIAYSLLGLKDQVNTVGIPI

`CNc1nc(Nc2ccc(C(=O)N3CCOCC3)cc2OC)ncc1Cl` was tested, and the kinase still bound, per cent of control [1] was 14%, the kinase still bound, per cent of control [2] was 100% and the kinase still bound, per cent of control [3] was 100%. It also gave a kinase still bound, per cent of control [4] of 100%, a kinase still bound, per cent of control [5] of 100% and a kinase still bound, per cent of control [6] of 100%. For the same compound, the kinase still bound, per cent of control [7] was 100%, the kinase still bound, per cent of control [8] was 100% and the kinase still bound, per cent of control [9] was 100%. The kinase still bound, per cent of control [10] was 100%, the kinase still bound, per cent of control [11] was 100% and the residual activity [12] was 84%. For the same compound, the kinase still bound, per cent of control [13] was 100%, the residual activity [14] was 100% and the kinase still bound, per cent of control [15] was 100%. It also gave a kinase still bound, per cent of control [16] of 100%, a kinase still bound, per cent of control [17] of 100% and a kinase still bound, per cent of control [18] of 93%. For the same compound, the kinase still bound, per cent of control [19] was 90%, the kinase still bound, per cent of control [20] was 100% and the kinase still bound, per cent of control [21] was 93%. The kinase still bound, per cent of control [22] was 56%, the kinase still bound, per cent of control [23] was 87% and the kinase still bound, per cent of control [24] was 100%. It also gave a kinase still bound, per cent of control [25] of 76%, a kinase still bound, per cent of control [26] of 100% and a kinase still bound, per cent of control [27] of 92%. It also gave a residual activity [28] of 100%, a kinase still bound, per cent of control [29] of 45% and a kinase still bound, per cent of control [30] of 100%. For the same compound, the kinase still bound, per cent of control [31] was 100%, the kinase still bound, per cent of control [32] was 100% and the kinase still bound, per cent of control [33] was 100%. The kinase still bound, per cent of control [34] was 95%, the residual activity [35] was 100% and the kinase still bound, per cent of control [36] was 93%. For the same compound, the kinase still bound, per cent of control [37] was 100%, the kinase still bound, per cent of control [38] was 100% and the residual activity [39] was 97%.
